Assay results as given in ChEMBL document CHEMBL3596102, “Anti-bacterial glycosyl triazoles - Identification of an N-acetylglucosamine derivative with bacteriostatic activity against Bacillus” (2014).
In brackets after ≈: the same amount, converted by molar mass. Activity calls are given as the source filed them. No cut-off for these calls is given here.

How the values were obtained:
Bacillus cereus [1] = experiment: Antibacterial activity against Bacillus cereus assessed as inhibition of bacterial growth after 4 hrs by resazurin microtiter assay; assay type: functional
Bacillus cereus [2] = experiment: Bacteriostatic activity against Bacillus cereus assessed as colony count at MIC after 4 hrs by resazurin microtiter assay (reference value: 2.67 +/-1.53x10^8 CFU/ml); assay type: functional
Bacillus subtilis [3] = experiment: Inhibition of GlcNAcase in Bacillus subtilis ATCC 11775 assessed as inhibition of nitrophenol release using beta-p-nitrophenyl GlcNAc as substrate at 250 uM after 16 hrs by Spectromax 190 microtitre plate reader
Bacillus subtilis [4] = experiment: Bacteriostatic activity against Bacillus subtilis ATCC 11775 assessed as colony count at MIC after 4 hrs by resazurin microtiter assay (reference value: 9.40 +/-2.88x10^7 CFU/ml); assay type: functional
Bacillus subtilis [5] = experiment: Induction of disrupted cell division in Bacillus subtilis ATCC 11775 assessed as phenotype with highly elongated cells and the appearance of chains of cells at 0.8xMIC after 2.5 hrs by phase contrast microscopy; assay type: functional, organism-based
Bacillus subtilis [6] = experiment: Antibacterial activity against Bacillus subtilis ATCC 11775 assessed as inhibition of bacterial growth after 4 hrs by resazurin microtiter assay; assay type: functional; settings: ATCC 11775, 4 h
Bacillus subtilis [7] = experiment: Inhibition of GlcNAcase in Bacillus subtilis ATCC 11775 assessed as inhibition of nitrophenol release using beta-p-nitrophenyl GlcNAc as substrate after 16 hrs by Spectromax 190 microtitre plate reader

COc1ccc(C(C(=O)NCc2ccccc2)N(Cc2ccccc2)C(=O)c2cn([C@@H]3O[C@H](CO)[C@@H](O)[C@H](O)[C@H]3NC(C)=O)nn2)cc1 (some centres not stated) showed an MIC (Bacillus cereus [1]) of 60 µM (≈ 39.5 µg/mL) and an Activity (Bacillus cereus [2]) of 7 ×10⁸ CFU/ml.

CCCCNC(=O)C(C1CCCCC1)N(Cc1cn([C@@H]2O[C@H](CO)[C@@H](O)[C@H](O)[C@H]2NC(C)=O)nn1)C(=O)c1ccccc1I (some centres not stated) was tested, and the inhibition (Bacillus subtilis [3]) was “Active”, the Activity (Bacillus subtilis [4]) was 8.5 ×10⁷ CFU/ml and the Activity (Bacillus subtilis [5]) was “Active”. For the same compound, the MIC (Bacillus subtilis [6]) was 63 µM (≈ 45.8 µg/mL) and the inhibition (Bacillus subtilis [7]) was “Dose-dependent effect”.
